From PMC7396997, “Discovery of 4-Anilinoquinolinylchalcone Derivatives as Potential NRF2 Activators” (Molecules, 2020)
Values joined by “and” are separate entries in the source; they are usually repeats but may differ in a detail not shown here. Equal entries are not always repeated. Structures can show the parent of a compound that is named as a salt.

What was measured:
NRF2 = test: ARE-driven luciferase reporter assay (NRF2 activity) in HaCaT/ARE stable cells; format: cell-based, human; settings: 10 μM, 24 h (b12; method b59 says 18 h), luciferase normalised to cell viability, DMSO control = 100%; for activity at 10 µM: Homo sapiens, HaCaT, read-out: % of Relative NRF2 Activity in HaCaT Cell
Text: In this study, we used a stable ARE-driven reporter system to screen the potential NRF2 activators.

HaCaT/ARE cells = test: Cell viability (resazurin) in the reporter screen; settings: 10 μM; in % (unit assumed)
Procedure: Immortalized human keratinocytes HaCaT were cultured in the Dulbecco’s modified Eagle’s medium (DMEM; Gibco BRL, Grand Island, NY, USA) with 10% heat-inactivated fetal bovine serum (HyClone, Logan, UT, USA), penicillin (100 U/mL), and streptomycin (100 μg/mL) in a humidified incubator with 5% CO2. HaCaT/ARE stable cells were grown in DMEM supplemented with 100 μg/mL of hygromycin.
HaCaT/ARE stable cells were seeded (1 × 10^4 cells/well) in a 96 well plate, then were treated with indicated concentrations of compounds for 18 h. At the assay time point, resazurin (Cayman Chemical, Ann Arbor, MI, USA) was added to a final concentration of 0.1 mg/mL and further incubated for 4 h at 37 °C. Fluorescence of the reduced resazurin (ex/em: 530 nm/590 nm) was measured from the culture supernatant by using a Synergy HT Multi-Mode Reader (BioTek, Winooski, VT, USA) to determine cell viability. The cells were then harvested for luciferase activity measurements according to the manufacturer’s protocol (Promega Corporation, Madison, WI, USA). Relative luciferase activity was calculated by normalizing luciferase activity to cell viability, and DMSO solvent control was used as 100% activity.

| Compound | melting point [°C] | activity at 10 µM (NRF2) [%] | Cell Viability (HaCaT/ARE cells) | % of Relative NRF2 Activity in HaCaT Cell (NRF2) |
| --- | --- | --- | --- | --- |
| O=C(/C=C/c1cc(Nc2ccccc2)c2ccccc2n1)c1ccccc1 (as salt: hydrochloride) [12a, (E)-1-phenyl-3-[4-(phenylamino)quinolin-2-yl]prop-2-en-1-one] | 238.5 to 239.2 | – | – | – |
| CC(=O)c1ccc(Nc2cc(/C=C/C(=O)c3ccccc3)nc3ccccc23)cc1 (as salt: hydrochloride) [12b, (E)-3-{4-[(4-acetylphenyl)amino]quinolin-2-yl}-1-phenylprop-2-en-1-one] | 248.7 to 249.2 | – | – | – |
| O=C(O)c1ccc(Nc2cc(/C=C/C(=O)c3ccccc3)nc3ccccc23)cc1 (as salt: hydrochloride) [12c, (E)-4-{[2-(3-oxo-3-phenylprop-1-en-1-yl)quinolin-4-yl]amino}benzoic acid] | 298.3 to 298.9 | – | – | – |
| C/C(=N\OCCN)c1ccc(Nc2cc(/C=C/C(=O)c3ccccc3)nc3ccccc23)cc1 (as salt: hydrochloride) [12d] | 200.2 to 201.5 | – | – | – |
| C/C(=N\OCCCN(C)C)c1ccc(Nc2cc(/C=C/C(=O)c3ccccc3)nc3ccccc23)cc1 (as salt: hydrochloride) [12e, (E)-3-{4-{{4-{(E)-1-{[3-(dimethylamino)propoxy]imino}ethyl}phenyl}-amino}quinolin-2-yl}-1-phenylprop-2-en-1-one] | 155.6 to 156.6 | – | – | – |
| CCN(CC)CCOC(=O)c1ccc(Nc2cc(/C=C/C(=O)c3ccccc3)nc3ccccc23)cc1 (as salt: hydrochloride) [12h, 2-(Diethylamino)ethyl (E)-4-{[2-(3-oxo-3-phenylprop-1-en-1-yl)quinolin-4-yl]amino}benzoate] | 158.7 to 159.3 | – | – | – |
| CCN(CC)CCOC(=O)c1ccc(Nc2cc(/C=C/C(=O)c3ccc(F)cc3)nc3ccccc23)cc1 (as salt: hydrochloride) [13h, 2-(Diethylamino)ethyl (E)-4-{{2-[3-(4-fluorophenyl)-3-oxoprop-1-en-1-yl]-quinolin-4-yl}amino}benzoate] | 135.4 to 135.8 | – | – | – |
| CCN(CC)CCOC(=O)c1ccc(Nc2cc(/C=C/C(=O)c3ccc(OC)cc3)nc3ccccc23)cc1 (as salt: hydrochloride) [14h, 2-(Diethylamino)ethyl (E)-4-{{2-[3-(4-methoxyphenyl)-3-oxoprop-1-en-1-yl]-quinolin-4-yl}amino}benzoate] | 158.7 to 159.3 | – | – | – |
| O=C(/C=C/c1cc(Nc2ccccc2)c2ccccc2n1)c1ccccc1 [12a, (E)-1-phenyl-3-[4-(phenylamino)quinolin-2-yl]prop-2-en-1-one] | – | 7 | 67.65 ± 0.6 | – |
| O=C(O)c1ccc(Nc2cc(/C=C/C(=O)c3ccccc3)nc3ccccc23)cc1 [12c, (E)-4-{[2-(3-oxo-3-phenylprop-1-en-1-yl)quinolin-4-yl]amino}benzoic acid] | – | 75 | 81.4 ± 0.8 | – |
| C/C(=N\OCCN)c1ccc(Nc2cc(/C=C/C(=O)c3ccccc3)nc3ccccc23)cc1 [12d] | – | 287 | 68.4 ± 1.3 | – |
| C/C(=N\OCCCN(C)C)c1ccc(Nc2cc(/C=C/C(=O)c3ccccc3)nc3ccccc23)cc1 [12e, (E)-3-{4-{{4-{(E)-1-{[3-(dimethylamino)propoxy]imino}ethyl}phenyl}-amino}quinolin-2-yl}-1-phenylprop-2-en-1-one] | – | 95 | 69.5 ± 0.9 | – |
| CCN(CC)CCNC(=O)c1ccc(Nc2cc(/C=C/C(=O)c3ccccc3)nc3ccccc23)cc1 [12f] | – | 26 | 78.8 ± 0.1 | – |
| CCN(CC)CCOC(=O)c1ccc(Nc2cc(/C=C/C(=O)c3ccccc3)nc3ccccc23)cc1 [12h, 2-(Diethylamino)ethyl (E)-4-{[2-(3-oxo-3-phenylprop-1-en-1-yl)quinolin-4-yl]amino}benzoate] | – | – | 71.1 ± 1.2 | – |
| CCN(CC)CCNC(=O)c1ccc(Nc2cc(/C=C/C(=O)c3ccc(OC)cc3)nc3ccccc23)cc1 [13f] | – | – | 88.7 ± 1.9 | – |
| CCN(CC)CCOC(=O)c1ccc(Nc2cc(/C=C/C(=O)c3ccc(F)cc3)nc3ccccc23)cc1 [13h, 2-(Diethylamino)ethyl (E)-4-{{2-[3-(4-fluorophenyl)-3-oxoprop-1-en-1-yl]-quinolin-4-yl}amino}benzoate] | – | – | 82.7 ± 1.7 | – |
| C/C(=N\OCCCN(C)C)c1ccc(Nc2cc(/C=C/C(=O)c3ccc(F)cc3)nc3ccccc23)cc1 [14e] | – | 193 | 76.7 ± 0.2 | – |
| CCN(CC)CCNC(=O)c1ccc(Nc2cc(/C=C/C(=O)c3ccc(F)cc3)nc3ccccc23)cc1 [14f] | – | 6 | 66.3 ± 2.6 | 6.0 ± 0.3% |
| CCN(CC)CCOC(=O)c1ccc(Nc2cc(/C=C/C(=O)c3ccc(OC)cc3)nc3ccccc23)cc1 [14h, 2-(Diethylamino)ethyl (E)-4-{{2-[3-(4-methoxyphenyl)-3-oxoprop-1-en-1-yl]-quinolin-4-yl}amino}benzoate] | – | 127 | 76.8 ± 0.2 | – |
| COc1ccc(/C=C/C(=O)c2c(O)cc(OC)cc2OC)cc1 [Flavokawain A, reference compound] | – | – | 95.9 ± 1.6 | – |
| CC(C)(C)c1cc(O)ccc1O [t-BHQ, tert-Butyl hydroquinone, reference compound] | – | – | 97.7 ± 1.5 | 1880% and 1880.4 ± 97.2% |
| (E)-1-(4-Fluorophenyl)-3-[4-(phenylamino)quinolin-2-yl]prop-2-en-1-one [13a] | – | – | – | 6% and 5.5 ± 0.17% |
| (E)-1-(4-Methoxyphenyl)-3-[4-(phenylamino)quinolin-2-yl]prop-2-en-1-one [14a] | – | – | – | 7% and 7.1 ± 1.3% |
| (E)-3-{4-{{4-{(E)-1-[(2-Aminoethoxy)imino]ethyl}phenyl}amino}quinolin-2-yl}-1-(4-fluorophenyl)prop-2-en-1-one [13d] | – | – | – | 1697% and 1697.3 ± 39.8% |
| (E)-3-{4-{{4-{(E)-1-[(2-Aminoethoxy)imino]ethyl}phenyl}amino}quinolin-2-yl}-1-(4-methoxyphenyl)prop-2-en-1-one [14d] | – | – | – | 229% and 229.4 ± 68.4% |
| (E)-3-{4-{{4-{(E)-1-{[2-(Dimethylamino)ethoxy]imino}ethyl}phenyl}-amino}quinolin-2-yl}-1-(4-fluorophenyl)prop-2-en-1-one [13e] | – | – | – | 2145% and 2144.7 ± 168.6% |
| (E)-4-({2-[3-(4-Fluorophenyl)-3-oxoprop-1-en-1-yl]quinolin-4-yl}amino)-benzoic acid [13c] | – | – | 74.5 ± 1.1 | 147% and 147.3 ± 51.7% |
| (E)-4-{{2-[3-(4-Methoxyphenyl)-3-oxoprop-1-en-1-yl]quinolin-4-yl}-amino}benzoic acid [14c] | – | – | 70.8 ± 1.9 | 212% and 212.6 ± 93.6% |
| (E)-N-[2-(Diethylamino)ethyl]-4-{{2-[3-(4-fluorophenyl)-3-oxoprop-1-en-1-yl]quinolin-4-yl}amino}benzamide [13g] | – | – | 78.7 ± 0.5 | 5% and 5.1 ± 0.42% |
| (E)-N-[2-(Diethylamino)ethyl]-4-{{2-[3-(4-methoxyphenyl)-3-oxoprop-1-en-1-yl]quinolin-4-yl}amino}benzamide [14g] | – | – | 77.6 ± 1.5 | 5% and 5.1 ± 0.18% |
